From US6245796A, “Tricyclic pyrrole or pyrazole derivative” (priority 1997, dated 2001)
Where a name gives a salt, the structure may show the parent alone. Read-outs that look alike come from different tables or passages of the source.

How the values were obtained:
5-HT2C receptor = assay: [3H] 5-HT binding assay, 5-HT2C receptor; details: Ki=IC50/(1+[L]/[Kd]), read-out: Binding test Ki, 5-HT2C receptor
Procedure: (§1) The 5-HT2C and 5-HT2A receptors: Carried out by [^3 H] 5-HT binding assay in accordance with the method of A. Pazos et al., Eur. J. Pharmacol., 106, 539-546 (1985) or S. Havlik and S. J. Peroutka, Brain Res., 584, 191-196 (1992).
(§2) Using the above method, a drug concentration which inhibits 50% of receptor binding of ligand (IC50 value) was calculated, and a Ki value which represents affinity for the receptor was obtained by the following formula.
(§3) ([L]: ligand concentration, [Kd]: dissociation constant)

5-HT2A receptor = 5-HT2A receptor (Homo sapiens, UniProt P28223); assay: biochemical; format: binding
Procedure: as §1, §2, §3

Sequence of 5-HT2A receptor (P28223 whole entry): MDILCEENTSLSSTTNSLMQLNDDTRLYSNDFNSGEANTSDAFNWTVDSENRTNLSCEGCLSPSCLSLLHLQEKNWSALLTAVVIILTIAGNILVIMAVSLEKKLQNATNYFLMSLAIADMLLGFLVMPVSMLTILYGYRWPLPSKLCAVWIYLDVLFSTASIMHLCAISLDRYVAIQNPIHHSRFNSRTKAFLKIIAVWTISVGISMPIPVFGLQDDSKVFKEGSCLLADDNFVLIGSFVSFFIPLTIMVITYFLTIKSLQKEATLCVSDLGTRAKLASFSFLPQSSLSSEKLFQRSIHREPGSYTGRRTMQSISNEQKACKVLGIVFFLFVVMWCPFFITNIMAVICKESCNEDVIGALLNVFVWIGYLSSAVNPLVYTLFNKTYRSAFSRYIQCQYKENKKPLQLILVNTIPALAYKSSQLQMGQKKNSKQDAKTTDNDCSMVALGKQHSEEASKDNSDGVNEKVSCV

| Structure (SMILES) | Ki (5-HT2C receptor) [nM] | Ki (5-HT2A receptor) [nM] | Ki (5-HT2A receptor; [3H] 5-HT binding, Ki=IC50/(1+[L]/[Kd]), read-out: Binding test Ki, 5-HT2A receptor) [nM] |
| --- | --- | --- | --- |
| NCCn1ncc2ccc3sc(Br)cc3c21 [Example 20, 2-(7-Bromo-1H-thieno[2,3-g]indazol-1-yl)ethylamine hydrochloride] | 0.8 | 18 |  |
| COc1nn(C[C@H](C)N)c2c1ccc1occc12 [Example 37, (S)-2-(3-Methoxy-1H-furo[2,3-g]indazol-1-yl)-1-methylethylamine fumarate] | 0.5 |  | 8.7 |
| CCc1nn(CCN)c2c1ccc1occc12 [Example 55, 2-(3-Ethyl-1H-furo[2,3-g]indazol-1-yl)ethylamine dihydrochloride] | 4.1 | 50 |  |
